Reference: patent US5763464A, “Retroviral agents containing anthranilamide, substituted benzamide and other subunits, and methods of using same” (The United States of America as represented by the …, priority 1995, dated 1998)
Read-outs that look alike come from different tables or passages of the source.

Key:
[1] = molecular target: T1, HIV-1 protease (wild-type, WT) (Human immunodeficiency virus type 1 group M subtype B, UniProt P04585); test: biochemical
T1 construct: purified HIV-1 protease (wild-type, WT)
Description: The inhibition constants (Ki) for the compounds of the above examples were determined using purified HIV-1 protease (wild-type, WT) (Tables I, II and III). Ki is an inhibition constant of a given compound as derived by enzyme kinetics. A low Ki represents a high affinity of the compound for the enzyme, i.e., tight binding or low dissociation. Inhibition of the cleavage was assayed using a fluorogenic substrate available from Molecular Probes, Inc., Eugene, Oreg., and described in Kageyama et al., Antimicrob. Agents. Chemother., 37, 272 (1993), and a fluorogenic substrate available from Bachem California, Torrance, Calif., and described in Kageyama et al. (1993), supra. Percent inhibition is the percentage inhibition of an enzyme's activity by a given compound at a given concentration.

[2] = tested on: HIV-1 (CEM cells chronically infected with HIV-1); test: Anti-retroviral activity in CEM cells chronically infected with HIV-1, soluble formazan assay; assay type: cell-based; details: Human immunodeficiency virus 1, CCRF-CEM
Description: Using the soluble formazan assay described by Weislow et al. (J. Nat'l. Cancer Inst., 81, 577-586 (1989)), CEM cells chronically infected with HIV-1 were used to assay the anti-retroviral activity of test compounds described herein. The concentration of compound that inhibits 50% of viral activity (EC50; determined as described in Weislow et al. (1989), supra) and the inhibition constant (Ki, as defined in Example 7) for the compound were determined.

[3] = tested on: CEM cells; test: Toxicity (IC50) in CEM cells, soluble formazan assay; details: Homo sapiens, CCRF-CEM
[4] = Table I, unit inferred, read-out: Ki

**Q.** How did the Ki ([1]; Table II, read-out: Ki) turn out when `CC(C)(C)OC(=O)N[C@@H](Cc1ccccc1)C[C@H](O)[C@H](Cc1ccccc1)NC(=O)c1ccccc1NC(=O)OCc1ccccn1` [AN-42] was run?
**A.** 0.85 nM

**Q.** What about the EC50 ([2]; Table II, read-out: EC50) of the same molecule?
**A.** < 1000 nM

**Q.** What about the IC50 [3] of the same molecule?
**A.** 23000 nM

**Q.** Which Ki ([1]; Table II, read-out: Ki) does the source give for `CC(C)(C)NC(=O)N[C@@H](Cc1ccccc1)C[C@H](O)[C@H](Cc1ccccc1)NC(=O)c1ccccc1NC(=O)OCc1ccccn1` [AN-43] here?
**A.** 1.05 nM

**Q.** And the EC50 ([2]; Table II, read-out: EC50)?
**A.** 1600 nM

**Q.** What about the IC50 [3] of the same molecule?
**A.** 33000 nM

**Q.** For `Nc1ccccc1C(=O)N[C@@H](Cc1ccccc1)C[C@H](O)[C@H](Cc1ccccc1)NC(=O)c1ccccc1N` [AN-72], which Ki [1, 4] is on record?
**A.** 96 nM

**Q.** Which results are given for `Cc1c(O)cccc1C(=O)N[C@@H](Cc1ccccc1)[C@H](O)[C@H](O)[C@H](Cc1ccccc1)NC(=O)O[C@H]1CCOC1` [AN-76]?
**A.** Ki [1]: 2 nM; EC50 ([2]; Table I): 7500 nM; IC50 [3]: > 50000 nM

**Q.** `Cc1c(O)cccc1C(=O)N[C@@H](Cc1ccccc1)[C@@H](O)[C@@H](O)[C@H](Cc1ccccc1)NC(=O)O[C@H]1CCOC1` [AN-78] was tested. Which Ki [1] did it give?
**A.** 1.43 nM

**Q.** What about the EC50 ([2]; Table I) of the same molecule?
**A.** 21000 nM

**Q.** And the IC50 [3]?
**A.** > 50000 nM

**Q.** With `Cc1c(O)cccc1C(=O)N[C@@H](Cc1ccccc1)[C@@H](O)C[C@H](Cc1ccccc1)NC(=O)c1ccc(O)cc1` [AN-88] as the molecule, how does the Ki [1, 4] read?
**A.** 3.65 nM

**Q.** For `Cc1c(O)cccc1C(=O)N[C@@H](Cc1ccccc1)[C@@H](O)C[C@H](Cc1ccccc1)NC(=O)c1cccc(O)c1` [AN-89], which Ki [1, 4] is on record?
**A.** 1.88 nM

**Q.** Which Ki ([1]; Table I, unit printed in the line, read-out: Ki) does the source give for `COc1ccc(S(=O)(=O)N[C@@H](Cc2ccccc2)C[C@H](O)[C@H](Cc2ccccc2)NC(=O)c2cccc(O)c2C)cc1` [AN-91] here?
**A.** 1500 nM

**Q.** How did the Ki [1, 4] turn out when `Cc1c(O)cccc1C(=O)N[C@@H](Cc1ccccc1)[C@@H](O)C[C@H](Cc1ccccc1)NC(=O)OCc1cccnc1` [AN-92, (2S,3S,5S)-2-[N-[(3-hydroxy-2-methylphenyl)carbonyl]amino]-5-[N-[(3-pyridinylmethoxy)carbonyl]amino]-1,6-diphenyl-3-hydroxy hexane] was run?
**A.** 0.46 nM

**Q.** What about the EC50 ([2]; Table I, read-out: EC50) of the same molecule?
**A.** 1300 nM

**Q.** And the IC50 [3]?
**A.** > 100000 nM

**Q.** For `Cc1c(O)cccc1C(=O)N[C@@H](Cc1ccccc1)[C@@H](O)C[C@H](Cc1ccccc1)NC(=O)c1cccc(N)c1` [AN-96, (2S,3S,5S)-2-[N-[(3-hydroxy-2-methylphenyl)carbonyl]amino]-5-[N-(3-aminophenyl)carbonyl]amino-1,6-diphenyl-3-hydroxy hexane], which Ki [1] is on record?
**A.** 0.75 nM

**Q.** And the EC50 ([2]; Table I)?
**A.** 630 to 58000 nM

**Q.** What about the IC50 [3] of the same molecule?
**A.** > 100000 nM

**Q.** How did the Ki [1, 4] turn out when `Cc1c(O)cccc1C(=O)N[C@@H](Cc1ccccc1)[C@@H](O)C[C@H](Cc1ccccc1)NC(=O)O[C@H]1CCOC1` [AN-98] was run?
**A.** 0.32 nM

**Q.** And the EC50 ([2]; Table I, read-out: EC50)?
**A.** 630 to 1000 nM

**Q.** And the IC50 [3]?
**A.** > 100000 nM

**Q.** Which Ki ([1]; read-out: Ki) does the source give for `Cc1c(O)cccc1C(=O)N[C@@H](Cc1ccccc1)C[C@H](O)[C@H](Cc1ccccc1)NC(=O)c1cccc(O)c1C` [DD-8] here?
**A.** 0.8 nM

**Q.** What about the EC50 ([2]; Table I, read-out: EC50) of the same molecule?
**A.** 400 nM

**Q.** What about the IC50 [3] of the same molecule?
**A.** 22000 nM

**Q.** How did the Ki ([1]; Table II, read-out: Ki) turn out when `O=C(Nc1ccccc1C(=O)N[C@@H](Cc1ccccc1)[C@@H](O)[C@@H](O)[C@H](Cc1ccccc1)NC(=O)c1cccc(O)c1)OCc1ccccc1` [DN-3] was run?
**A.** 5.9 nM

**Q.** What does the source list for `O=C(Nc1ccccc1C(=O)N[C@@H](Cc1ccccc1)[C@@H](O)[C@@H](O)[C@H](Cc1ccccc1)NC(=O)c1cccc(O)c1)OCc1ccccn1` [DN-4]?
**A.** Ki ([1]; Table II, read-out: Ki): 1.77 nM; EC50 ([2]; Table II, read-out: EC50): 900 nM; IC50 [3]: 9000 to 28000 nM

**Q.** For `CC(C)(C)OC(=O)N[C@@H](Cc1ccccc1)[C@@H](O)[C@@H](O)[C@H](Cc1ccccc1)NC(=O)c1ccccc1NC(=O)OCc1ccccn1` [DN-11], which Ki ([1]; Example 2, read-out: Ki) is on record?
**A.** 0.4 nM

**Q.** What about the Ki ([1]; Table II, read-out: Ki) of the same molecule?
**A.** 0.45 nM

**Q.** And the EC50 ([2]; Table II, read-out: EC50)?
**A.** 490 nM

**Q.** What about the IC50 [3] of the same molecule?
**A.** 21000 nM

**Q.** With `O=C(N[C@@H](Cc1ccccc1)[C@H](O)[C@H](O)[C@H](Cc1ccccc1)NC(=O)c1cccc(O)c1)c1cccc(O)c1` [Diol-10] as the molecule, how does the Ki ([1]; Table I, unit not given) read?
**A.** 22/25

**Q.** How did the Ki [1, 4] turn out when `O=C(N[C@@H](Cc1ccccc1)[C@H](O)[C@H](O)[C@H](Cc1ccccc1)NC(=O)c1ccc(O)cc1)c1ccc(O)cc1` [Diol-51] was run?
**A.** 276 nM

**Q.** `Cc1c(O)cccc1C(=O)N[C@@H](Cc1ccccc1)[C@H](O)[C@H](O)[C@H](Cc1ccccc1)NC(=O)c1cccc(O)c1C` [Diol-52] was tested. Which Ki [1, 4] did it give?
**A.** 1.2 nM

**Q.** What about the EC50 ([2]; Table I) of the same molecule?
**A.** 900 nM

**Q.** And the IC50 [3]?
**A.** 25000 nM

**Q.** For `O=C(N[C@@H](Cc1ccccc1)[C@H](O)[C@H](O)[C@H](Cc1ccccc1)NC(=O)c1ccccc1)c1ccccc1` [Diol-56], which Ki [1, 4] is on record?
**A.** 40 nM

**Q.** For `Cc1ccccc1C(=O)N[C@@H](Cc1ccccc1)[C@H](O)[C@H](O)[C@H](Cc1ccccc1)NC(=O)c1ccccc1C` [Diol-57], which Ki [1, 4] is on record?
**A.** 8 nM

**Q.** `O=C(N[C@@H](Cc1ccccc1)[C@H](O)[C@H](O)[C@H](Cc1ccccc1)NC(=O)c1ccccc1O)c1ccccc1O` [Diol-58] was tested. Which “Percent inhibition (Ki column)” value ([1]; Table I, 10μ) did it give?
**A.** 32%

**Q.** What does the source list for `CC(C)C(NC(=O)OCc1ccccn1)C(=O)N[C@@H](Cc1ccccc1)C[C@H](O)[C@H](Cc1ccccc1)NC(=O)c1ccccc1NC(=O)OCc1ccccn1` (some centres unmarked) [LL-68]?
**A.** Ki ([1]; Table II, read-out: Ki): 0.034 nM; EC50 ([2]; Table II, read-out: EC50): 490 nM; IC50 [3]: 22000 nM

**Q.** Which Ki ([1]; Table II, read-out: Ki) does the source give for `Cc1c(O)cccc1C(=O)N[C@@H](Cc1ccccc1)C[C@H](O)[C@H](Cc1ccccc1)NC(=O)c1ccccc1NC(=O)OCc1ccccn1` [LL-69] here?
**A.** 0.68 nM

**Q.** With `CC(C)(C)OC(=O)N[C@@H](Cc1ccccc1)[C@@H](O)[C@@H](O)[C@H](Cc1ccccc1)NC(=O)c1ccccc1NC(=O)OCc1ccccn1` [LL-70] as the molecule, how does the Ki ([1]; read-out: Ki) read?
**A.** 0.14 nM

**Q.** Which results are given for `CC(C)C(NC(=O)OCc1ccccn1)C(=O)N[C@@H](Cc1ccccc1)[C@@H](O)[C@@H](O)[C@H](Cc1ccccc1)NC(=O)c1ccccc1NC(=O)OCc1ccccn1` (stereo partly drawn) [LL-73, (2S,3R,4S,5S)-2-[N-(N-(2-pyridinylmethoxy)valinyl)amino]-5-[N-[N-((2-pyridinylmethoxy)carbonyl)anthranilyl]amino]-3,4-dihydroxy-1,6-diphenyl hexane]?
**A.** EC50 ([2]; Table III): 4 nM; IC50 [3]: 47000 nM

**Q.** How did the Ki [1] turn out when `Cc1c(O)cccc1C(=O)N[C@@H](Cc1ccccc1)[C@@H](O)C[C@H](Cc1ccccc1)NC(=O)c1ccccc1NC(=O)OCc1ccccn1` [LL-82, (2S,3S,5S)-2-[N-[(3-hydroxy-2-methylphenyl)carbonyl]amino]-5-[N-[N-[(2-pyridinylmethoxy)carbonyl]anthranilyl]amino]-1,6-diphenyl-3-hydroxy hexane] was run?
**A.** 0.06 ± 0.018 nM

**Q.** And the EC50 ([2]; Table III)?
**A.** 33 nM

**Q.** And the IC50 [3]?
**A.** 40000 nM

**Q.** `O=C(Nc1ccccc1C(=O)N[C@@H](Cc1ccccc1)C[C@H](O)[C@H](Cc1ccccc1)NC(=O)O[C@H]1CCOC1)OCc1ccccn1` [LL-101, (2S,3S,5S)-5-[N-[N-((2-pyridinylmethoxy)carbonyl)anthranilyl]amino]2-[N-((3-S-(tetrahydrofuranyl)oxy)carbonyl)amino]-1,6-diphenyl-3-hydroxy hexane] was tested. Which Ki [1] did it give?
**A.** 0.042 ± 0.007 nM

**Q.** For `O=C(Nc1ccccc1C(=O)N[C@@H](Cc1ccccc1)[C@H](O)[C@H](O)[C@H](Cc1ccccc1)NC(=O)c1cccc(O)c1)OCc1ccccn1` [ND-4], which Ki ([1]; Table III, read-out: Ki) is on record?
**A.** 0.76 nM

**Q.** Which results are given for `O=C(N[C@@H](Cc1ccccc1)C[C@H](O)[C@H](Cc1ccccc1)NC(=O)O[C@H]1CCOC1)O[C@H]1CCOC1` [RS-194]?
**A.** Ki [1]: 1.68 nM; EC50 ([2]; Table I): 6500 nM; IC50 [3]: > 50000 nM

**Q.** With `CC(C)(C)OC(=O)N[C@@H](Cc1ccccc1)[C@H](O)[C@H](O)[C@H](Cc1ccccc1)NC(=O)OC(C)(C)C` [RS-196] as the molecule, how does the Ki ([1]; read-out: Ki) read?
**A.** 8.4 nM

**Q.** How did the Ki [1, 4] turn out when `Cc1c(O)cccc1C(=O)N[C@@H](Cc1ccccc1)[C@H](O)[C@H](O)[C@H](Cc1ccccc1)NC(=O)OC(C)(C)C` [RS-198] was run?
**A.** 8.3 nM

**Q.** How did the Ki [1, 4] turn out when `Cc1c(O)cccc1C(=O)N[C@@H](Cc1ccccc1)[C@@H](O)[C@@H](O)[C@H](Cc1ccccc1)NC(=O)OC(C)(C)C` [RS-199] was run?
**A.** 0.66 nM

**Q.** What about the EC50 ([2]; Table I, read-out: EC50) of the same molecule?
**A.** 1300 nM

**Q.** And the IC50 [3]?
**A.** > 50000 nM

**Q.** `Cc1ccc(O)cc1C(=O)N[C@@H](Cc1ccccc1)C[C@H](O)[C@H](Cc1ccccc1)NC(=O)c1cc(O)ccc1C` [RS-201] was tested. Which Ki [1, 4] did it give?
**A.** 6.6 nM
